Test results taken from patent US20230011869A1 (Hoffmann-La Roche Inc., priority 2018, published 2023).
Structures can show the parent of a compound that is named as a salt.

These compounds were tested on Acinetobacter baumannii ATCC17978 (assay: Antimicrobial susceptibility testing: 90% growth inhibitory concentration (IC90) determination, Iso-Sensitest broth). Settings: 90% growth inhibitory concentration, Acinetobacter baumannii ATCC17978, Iso-Sensitest broth, OD 600 nm over 16 h; read-out: ATCC17978 IC90.
Assay type: cell-based
Protocol: Antimicrobial Susceptibility Testing:
90% Growth Inhibitory Concentration (IC90) Determination
The in vitro antimicrobial activity of the compounds was determined according to the following procedure:
The assay used a 10-points Iso-Sensitest broth medium to measure quantitatively the in vitro activity of the compounds against Acinetobacter baumannii ATCC17978 and Acinetobacter baumannii ATCC17961.
Microtiter plates were incubated at 35±2° C.
Bacterial cell growth was determined with the measurement of optical density at λ=600 nm each 20 minutes over a time course of 16 h. Growth inhibition was calculated during the logarithmic growth of the bacterial cells with determination of the concentration inhibiting 50% (IC50) and 90% (IC90) of the growth.
With `COc1ccc(-c2cnc3c(Nc4ccc(C(=O)N5CCN(CCN(C)C)CC5)c(C)c4)nccn23)cc1F` [Example 35, (4-(2-(dimethylamino)ethyl)piperazin-1-yl)(4-((3-(3-fluoro-4-methoxyphenyl)imidazo[1,2-a]pyrazin-8-yl)amino)-2-methylphenyl)methanone] the IC90 was 250 nM. `Cc1cc(Nc2nccn3c(-c4ccc(OC(F)F)cc4)cnc23)ccc1C(=O)N1CCC(N2CCN(C)CC2)CC1` [Example 36, (4-((3-(4-(difluoromethoxy)phenyl)imidazo[1,2-a]pyrazin-8-yl)amino)-2-methylphenyl)(4-(4-methylpiperazin-1-yl)piperidin-1-yl)methanone] showed an IC90 of 250 nM. With `Cc1cc(Nc2nccn3c(-c4ccc(OC(F)F)cc4)cnc23)ccc1C(=O)N1CCN(C(=O)CN(C)C)CC1` [Example 38, 1-(4-(4-((3-(4-(difluoromethoxy)phenyl)imidazo[1,2-a]pyrazin-8-yl)amino)-2-methylbenzoyl)piperazin-1-yl)-2-(dimethylamino)ethanone] the IC90 was 220 nM. `COc1ccc(-c2cnc3c(Nc4ccc(C(=O)N5CCC(C(=O)N6CCOC(CN)C6)CC5)c(C)c4)nccn23)cc1F` (stereo not shown) [Example 39, (4-(2-(aminomethyl)morpholine-4-carbonyl)piperidin-1-yl)(4-((3-(3-fluoro-4-methoxyphenyl)imidazo[1,2-a]pyrazin-8-yl)amino)-2-methylphenyl)methanone hydrochloride] was tested, and the IC90 was 260 nM. Work on `CNCCNC(=O)C1CCN(C(=O)c2ccc(Nc3nccn4c(-c5ccc(OC)c(F)c5)cnc34)cc2C)CC1` [Example 40, 1-(4-((3-(3-fluoro-4-methoxyphenyl)imidazo[1,2-a]pyrazin-8-yl)amino)-2-methylbenzoyl)-N-(2-(methylamino)ethyl)piperidine-4-carboxamide hydrochloride] yielded an IC90 of 280 nM. `COc1ccc(-c2cnc3c(Nc4ccc(C(=O)N5CCN(c6nccn6C)CC5)c(C)c4)nccn23)cc1F` [Example 41, (4-((3-(3-fluoro-4-methoxyphenyl)imidazo[1,2-a]pyrazin-8-yl)amino)-2-methylphenyl)(4-(1-methyl-1H-imidazol-2-yl)piperazin-1-yl)methanone] showed an IC90 of 110 nM. Work on `COc1ccc(-c2cnc3c(Nc4ccc(C(=O)N5CCNCC5CO)c(C)c4)nccn23)cc1F` (stereo not shown) [Example 42, (4-((3-(3-fluoro-4-methoxyphenyl)imidazo[1,2-a]pyrazin-8-yl)amino)-2-methylphenyl)(2-(hydroxymethyl)piperazin-1-yl)methanone] yielded an IC90 of 270 nM. `Cc1cc(Nc2nccn3c(-c4ccc(OC(F)F)cc4)cnc23)ccc1C(=O)N1CCC(C(=O)N2CC3(C2)CN(C2CC2)C3)CC1` [Example 44, (4-(6-cyclopropyl-2,6-diazaspiro[3.3]heptane-2-carbonyl)piperidin-1-yl)(4-((3-(4-(difluoromethoxy)phenyl)imidazo[1,2-a]pyrazin-8-yl)amino)-2-methylphenyl)methanone] gave an IC90 of 280 nM. For `COc1ccc(-c2cnc3c(Nc4ccc(C(=O)N5CCC(C(=O)NCCCN(C)C)CC5)c(C)c4)nccn23)cc1F` [Example 46, N-[3-(dimethylamino)propyl]-1-[4-[[3-(3-fluoro-4-methoxyphenyl)imidazo[1,2-a]pyrazin-8-yl]amino]-2-methylbenzoyl]piperidine-4-carboxamide], the IC90 was 200 nM. For `COc1ccc(-c2cnc3c(Nc4ccc(C(=O)N5CCC(C(=O)NCCN(C)C)CC5)c(C)c4)nccn23)cc1F` [Example 47, N-[2-(dimethylamino)ethyl]-1-[4-[[3-(3-fluoro-4-methoxyphenyl)imidazo[1,2-a]pyrazin-8-yl]amino]-2-methylbenzoyl]piperidine-4-carboxamide], the IC90 was 140 nM. For `COc1ccc(-c2cnc3c(Nc4ccc(C(=O)N5CCC(C(=O)N6CCNC(C(=O)O)C6)CC5)c(C)c4)nccn23)cc1F` (stereo not shown) [Example 48, 4-[1-[4-[[3-(3-fluoro-4-methoxyphenyl)imidazo[1,2-a]pyrazin-8-yl]amino]-2-methylbenzoyl]piperidine-4-carbonyl]piperazine-2-carboxylic acid;hydrochloride], the IC90 was 930 nM.

Same assay, conditions: Acinetobacter baumannii, ATCC17978, 16 h, read-out: ATCC17978 IC90, 90% growth inhibitory concentration, Acinetobacter baumannii ATCC17978, Iso-Sensitest broth, OD 600 nm over 16 h
`COc1ccc(-c2cnc3c(Nc4ccc(C(=O)N5CCC(CN)CC5)c(C)c4)nccn23)cc1F` [Example 34, (4-(aminomethyl)piperidin-1-yl)(4-((3-(3-fluoro-4-methoxyphenyl)imidazo[1,2-a]pyrazin-8-yl)amino)-2-methylphenyl)methanone hydrochloride] was tested, and the IC90 was 190 nM. With `Cc1cc(Nc2nccn3c(-c4ccc(OC(F)F)cc4)cnc23)ccc1C(=O)N1CCC(C(=O)N2CCOC(CN)C2)CC1` (stereo not shown) [Example 43, (4-(2-(aminomethyl)morpholine-4-carbonyl)piperidin-1-yl)(4-((3-(4-(difluoromethoxy)phenyl)imidazo[1,2-a]pyrazin-8-yl)amino)-2-methylphenyl)methanone hydrochloride] the IC90 was 220 nM. `Cc1cc(Nc2nccn3c(-c4ccc(OC(F)F)cc4)cnc23)ccc1C(=O)N1CCC(N2CCNCC2)CC1` [Example 45, (4-((3-(4-(difluoromethoxy)phenyl)imidazo[1,2-a]pyrazin-8-yl)amino)-2-methylphenyl)(4-(piperazin-1-yl)piperidin-1-yl)methanone hydrochloride] gave an IC90 of 190 nM. Work on `CNCCCNC(=O)C1CCN(C(=O)c2ccc(Nc3nccn4c(-c5ccc(OC)c(F)c5)cnc34)cc2C)CC1` [Example 49, 1-(4-((3-(3-fluoro-4-methoxyphenyl)imidazo[1,2-a]pyrazin-8-yl)amino)-2-methylbenzoyl)-N-(3-(methylamino)propyl)piperidine-4-carboxamide hydrochloride] yielded an IC90 of 270 nM. `CN[C@@H]1CCN(C(=O)C2CCN(C(=O)c3ccc(Nc4nccn5c(-c6ccc(OC)c(F)c6)cnc45)cc3C)CC2)C1` [Example 50, (R)-(1-(4-((3-(3-fluoro-4-methoxyphenyl)imidazo[1,2-a]pyrazin-8-yl)amino)-2-methylbenzoyl)piperidin-4-yl)(3-(methylamino)pyrrolidin-1-yl)methanone hydrochloride] was tested, and the IC90 was 290 nM. For `CNCCCCNC(=O)C1CCN(C(=O)c2ccc(Nc3nccn4c(-c5ccc(OC)c(F)c5)cnc34)cc2C)CC1` [Example 51, 1-(4-((3-(3-fluoro-4-methoxyphenyl)imidazo[1,2-a]pyrazin-8-yl)amino)-2-methylbenzoyl)-N-(4-(methylamino)butyl)piperidine-4-carboxamide hydrochloride], the IC90 was 290 nM. Work on `COc1ccc(-c2cnc3c(Nc4ccc(C(=O)N5CCC(C(=O)NCCCN)CC5)c(C)c4)nccn23)cc1F` [Example 52, N-(3-aminopropyl)-1-(4-((3-(3-fluoro-4-methoxyphenyl)imidazo[1,2-a]pyrazin-8-yl)amino)-2-methylbenzoyl)piperidine-4-carboxamide hydrochloride] yielded an IC90 of 230 nM. `COc1ccc(-c2cnc3c(Nc4ccc(C(=O)N5CCC(C(=O)N6CCNC(CO)C6)CC5)c(C)c4)nccn23)cc1F` (stereo not shown) [Example 53, (1-(4-((3-(3-fluoro-4-methoxyphenyl)imidazo[1,2-a]pyrazin-8-yl)amino)-2-methylbenzoyl)piperidin-4-yl)(3-(hydroxymethyl)piperazin-1-yl)methanone 2,2,2-trifluoroacetate] showed an IC90 of 270 nM. With `COc1ccc(-c2cnc3c(Nc4ccc(C(=O)N5CCC(C(=O)NCC6(O)CCNC6)CC5)c(C)c4)nccn23)cc1F` (stereo not shown) [Example 54, 1-(4-((3-(3-fluoro-4-methoxyphenyl)imidazo[1,2-a]pyrazin-8-yl)amino)-2-methylbenzoyl)-N-((3-hydroxypyrrolidin-3-yl)methyl)piperidine-4-carboxamide 2,2,2-trifluoroacetate] the IC90 was 370 nM. With `COc1ccc(-c2cnc3c(Nc4ccc(C(=O)N5CCC(C(=O)NCC(O)CN)CC5)c(C)c4)nccn23)cc1F` (stereo not shown) [Example 55, N-(3-amino-2-hydroxypropyl)-1-(4-((3-(3-fluoro-4-methoxyphenyl)imidazo[1,2-a]pyrazin-8-yl)amino)-2-methylbenzoyl)piperidine-4-carboxamide 2,2,2-trifluoroacetate] the IC90 was 390 nM. `COc1ccc(-c2cnc3c(Nc4ccc(C(=O)N5CCC(C(=O)N[C@@H]6CNC[C@H]6O)CC5)c(C)c4)nccn23)cc1F` [Example 56, 1-(4-((3-(3-fluoro-4-methoxyphenyl)imidazo[1,2-a]pyrazin-8-yl)amino)-2-methylbenzoyl)-N-((3R,4R)-4-hydroxypyrrolidin-3-yl)piperidine-4-carboxamide 2,2,2-trifluoroacetate] showed an IC90 of 220 nM. `COc1ccc(-c2cnc3c(Nc4ccc(C(=O)N5CCC(C(=O)NC6CNC6)CC5)c(C)c4)nccn23)cc1F` [Example 57, N-(azetidin-3-yl)-1-(4-((3-(3-fluoro-4-methoxyphenyl)imidazo[1,2-a]pyrazin-8-yl)amino)-2-methylbenzoyl)piperidine-4-carboxamide 2,2,2-trifluoroacetate] showed an IC90 of 250 nM. Compound `COc1ccc(-c2cnc3c(Nc4ccc(C(=O)N5CCC(C(=O)NCC6(O)CNC6)CC5)c(C)c4)nccn23)cc1F` [Example 58, 1-(4-((3-(3-fluoro-4-methoxyphenyl)imidazo[1,2-a]pyrazin-8-yl)amino)-2-methylbenzoyl)-N-((3-hydroxyazetidin-3-yl)methyl)piperidine-4-carboxamide 2,2,2-trifluoroacetate] has an IC90 of 250 nM.

Same assay, conditions: read-out: ATCC17978 IC90; 90% growth inhibitory concentration, Acinetobacter baumannii ATCC17978, Iso-Sensitest broth, OD 600 nm over 16 h; hydrochloride
`Cc1cc(Nc2nccn3c(-c4ccc(OC(F)F)cc4)cnc23)ccc1C(=O)N1CCN(C(=O)CN)CC1` [Example 37, 2-amino-1-(4-(4-((3-(4-(difluoromethoxy)phenyl)imidazo[1,2-a]pyrazin-8-yl)amino)-2-methylbenzoyl)piperazin-1-yl)ethanone hydrochloride] gave an IC90 of 180 nM.
